Measured values published in patent US20240150293A1, “SPIROCYCLOHEXANE DERIVATIVES, PHARMACEUTICAL COMPOSITIONS CONTAINING THEM AND THEIR USES AS ANTI-APOPTOTIC INHIBITORS” (LES LABORATOIRES SERVIER, priority 2021, published 2024).
pKi: −log10 of the molar value.

Biological target: Mcl-1 protein (UniProtKB Q07820) (Homo sapiens (Human), UniProt Q07820)
Assay: Inhibition of Mcl-1 by the fluorescence polarisation assay (Example A, Method A)
Format: binding
Conditions: fluorescence polarization assay
Summary of the method: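 Protein (5 nM) and fluorescein-tagged peptide tracer (1 nM) incubated with 11-point compound series for 2 h at room temperature in HEPES/NaCl/Tween 20 buffer, pH 7.4, 5% DMSO. Displacement read as decrease in polarisation; IC50 fitted by 4-parameter logistic, converted to Ki (cKi or eKi).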

Chain of Mcl-1 protein (Q07820 whole entry): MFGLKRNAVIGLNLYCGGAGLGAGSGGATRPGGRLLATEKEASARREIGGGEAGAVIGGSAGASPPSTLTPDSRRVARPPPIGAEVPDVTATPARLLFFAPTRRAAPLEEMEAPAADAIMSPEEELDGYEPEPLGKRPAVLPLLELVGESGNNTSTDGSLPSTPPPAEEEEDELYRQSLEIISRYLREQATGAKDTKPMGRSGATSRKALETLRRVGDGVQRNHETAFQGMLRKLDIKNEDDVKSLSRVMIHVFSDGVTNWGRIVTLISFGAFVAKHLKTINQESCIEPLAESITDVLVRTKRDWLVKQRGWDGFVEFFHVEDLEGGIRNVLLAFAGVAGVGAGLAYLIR

Row | Compound | pKi
1 | O=C(O)[C@]1(Nc2cccc(Br)c2)CC[C@@]2(CC1)C(=O)Nc1ccccc12 [Example 1, (1r,4r)-4-(3-bromoanilino)-2′-oxo-1′,2′-dihydrospiro[cyclohexane-1,3′-indole]-4-carboxylic acid] | 4.63
2 | O=C(O)[C@]1(Nc2cncc(Br)c2)CC[C@]2(CC1)C(Br)=Cc1ccccc12 [Example 79, (1s,4s)-2′-bromo-4-[(5-bromopyridin-3-yl)amino]spiro[cyclohexane-1,1′-indene]-4-carboxylic acid] | 6.24
3 | O=C(O)C1(Nc2cccc(Br)c2)CCC2(CC1)C(c1ccc(Cl)c(Cl)c1)=Cc1ccccc12 (single isomer, unassigned) [Example 233, 4-(3-bromoanilino)-2′-(3,4-dichlorophenyl)spiro[cyclohexane-1,1′-indene]-4-carboxylic acid] | 4.36
4 | COc1ccc(N2C(=O)c3ccccc3[C@]23CC[C@@](Nc2cccc(Br)c2)(C(=O)O)CC3)cc1 [Example 33, (1s,4s)-4-(3-bromoanilino)-2′-(4-methoxyphenyl)-3′-oxo-2′,3′-dihydrospiro[cyclohexane-1,1′-isoindole]-4-carboxylic acid] | 4.92
5 | O=C(O)[C@]1(Nc2cccc(Cl)c2)CC[C@]2(CC1)C(c1ccoc1)=Cc1ccccc12 [Example 329, (1s,4s)-4-(3-chloroanilino)-2′-(furan-3-yl)spiro[cyclohexane-1,1′-indene]-4-carboxylic acid] | 5.78
6 | Cc1csc(C2=Cc3ccccc3[C@]23CC[C@@](Nc2cccc(Cl)c2)(C(=O)O)CC3)c1 [Example 316, (1s,4s)-4-(3-chloroanilino)-2′-(4-methylthiophen-2-yl)spiro[cyclohexane-1,1′-indene]-4-carboxylic acid] | 5.73
7 | O=C(O)[C@]1(Nc2cccc(Cl)c2)CC[C@@]2(CC1)c1ccccc1CC2CCCOC1CCOCC1 (some centres unmarked) [Example 467, (1r,4r)-4-(3-chloroanilino)-2′-{3-[(oxan-4-yl)oxy]propyl}-2′,3′-dihydrospiro[cyclohexane-1,1′-indene]-4-carboxylic acid] | 6.13
8 | Cc1cccc(CCOCC2=Cc3ccccc3[C@]23CC[C@@](Nc2cccc(Cl)c2)(C(=O)O)CC3)c1 [Example 411, (1s,4s)-4-(3-chloroanilino)-2′-{[2-(3-methylphenyl)ethoxy]methyl}spiro[cyclohexane-1,1′-indene]-4-carboxylic acid] | 6.23
9 | O=C(O)[C@]1(Nc2cccc(Cl)c2)CC[C@@]2(CC1)c1ccccc1CC2CCCc1ccc(Cl)cc1 (some centres unmarked) [Example 162, (1r,4r)-4-(3-chloroanilino)-2′-[3-(4-chlorophenyl)propyl]-2′,3′-dihydrospiro[cyclohexane-1,1′-indene]-4-carboxylic acid] | 6.25
10 | COc1cccc(N2Cc3ccccc3[C@]23CC[C@@](Nc2cccc(Br)c2)(C(=O)O)CC3)c1 [Example 32, (1s,4s)-4-(3-bromoanilino)-2′-(3-methoxyphenyl)-2′,3′-dihydrospiro[cyclohexane-1,1′-isoindole]-4-carboxylic acid] | 5.49
11 | O=C(O)[C@]1(Nc2cccc(Cl)c2)CC[C@@]2(CC1)c1ccccc1C[C@H]2C1CCC1 [Example 100, (1r,2′S,4S)-4-(3-chloroanilino)-2′-cyclobutyl-2′,3′-dihydrospiro[cyclohexane-1,1′-indene]-4-carboxylic acid] | 5.58
12 | COc1cc(Cl)cc(C2=Cc3ccccc3[C@]23CC[C@@](Nc2cccc(Cl)c2)(C(=O)O)CC3)c1 [Example 331, (1s,4s)-4-(3-chloroanilino)-2′-(3-chloro-5-methoxyphenyl)spiro[cyclohexane-1,1′-indene]-4-carboxylic acid] | 5.66
13 | O=C(O)[C@]1(Nc2cccc(Cl)c2)CC[C@@]2(C=Cc3ccccc32)CC1 [Example 64, (1r,4r)-4-(3-chloroanilino)spiro[cyclohexane-1,1′-indene]-4-carboxylic acid] | 6.13
14 | O=C(O)[C@]1(Nc2cccc(Cl)c2)CC[C@]2(CC1)C(C1CN(Cc3c(F)ccc(F)c3F)C1)=Cc1ccccc12 [Example 99, (1r,4r)-4-(3-chloroanilino)-2′-{1-[(2,3,6-trifluorophenyl)methyl]azetidin-3-yl}spiro[cyclohexane-1,1′-indene]-4-carboxylic acid] | 5.54
15 | O=C(O)[C@]1(Nc2cccc(Cl)c2)CC[C@@]2(CC1)c1ccccc1C[C@@H]2C1CCC1 [Example 101, (1r,2′R,4R)-4-(3-chloroanilino)-2′-cyclobutyl-2′,3′-dihydrospiro[cyclohexane-1,1′-indene]-4-carboxylic acid] | 4.57
16 | CCOCCCC1Cc2ccccc2[C@]12CC[C@@](Nc1cccc(Cl)c1)(C(=O)O)CC2 (some centres unmarked) [Example 156, (1r,4r)-4-(3-chloroanilino)-2′-(3-ethoxypropyl)-2′,3′-dihydrospiro[cyclohexane-1,1′-indene]-4-carboxylic acid] | 6.21
17 | C[C@H]1c2ccccc2[C@]2(CC[C@@](Nc3cccc(Cl)c3)(C(=O)O)CC2)[C@H]1C (single isomer, unassigned) [Example 208, (1r,2′R*,3'S*,4r)-4-(3-chloroanilino)-2′,3′-dimethyl-2′,3′-dihydrospiro[cyclohexane-1,1′-indene]-4-carboxylic acid] | 4.50
18 | Cn1ccc2cc(C3Cc4ccccc4[C@]34CC[C@@](Nc3cccc(Cl)c3)(C(=O)O)CC4)ccc21 (some centres unmarked) [Example 274, (1r,4r)-4-(3-chloroanilino)-2′-(1-methyl-1H-indol-5-yl)-2′,3′-dihydrospiro[cyclohexane-1,1′-indene]-4-carboxylic acid] | 5.33
19 | O=C(O)C1(Nc2cccc(Cl)c2)CCC2(C=Cc3cccnc32)CC1 (single isomer, unassigned) [Example 71, 4-(3-chloroanilino)spiro[cyclohexane-1,7′-cyclopenta[b]pyridine]-4-carboxylic acid] | 6.01
20 | O=C(O)C1(Nc2cccc(Cl)c2)CCC2(C=Cc3cccnc32)CC1 (single isomer, unassigned) [Example 72, 4-(3-chloroanilino)spiro[cyclohexane-1,7′-cyclopenta[b]pyridine]-4-carboxylic acid] | 3.72
21 | CC1=C(C)[C@]2(CC[C@@](Nc3cccc(Br)c3)(C(=O)O)CC2)c2ccccc21 [Example 203, (1s,4s)-4-(3-bromoanilino)-2′,3′-dimethylspiro[cyclohexane-1,1′-indene]-4-carboxylic acid] | 4.40

Compounds with a higher pKi, results first:

Row | pKi | Compound
22 | 6.51 | COc1ccccc1CCOCC1=Cc2ccccc2[C@]12CC[C@@](Nc1cccc(Cl)c1)(C(=O)O)CC2 [Example 414, (1s,4s)-4-(3-chloroanilino)-2′-{[2-(2-methoxyphenyl)ethoxy]methyl}spiro[cyclohexane-1,1′-indene]-4-carboxylic acid]
23 | 6.79 | CC(F)(COc1ccnc2c1CCC2)CC1Cc2ccccc2[C@]12CC[C@@](Nc1cccc(Cl)c1)(C(=O)O)CC2 (some centres unmarked) [Example 607, (1r,4r)-4-(3-chloroanilino)-2′-{3-[(6,7-dihydro-5H-cyclopenta[b]pyridin-4-yl)oxy]-2-fluoro-2-methylpropyl}-2′,3′-dihydrospiro[cyclohexane-1,1′-indene]-4-carboxylic acid]
24 | 6.67 | O=C(O)[C@]1(Nc2cccc(Cl)c2)CC[C@@]2(CC1)c1ccccc1CC2CCOc1ccncc1F (some centres unmarked) [Example 188, (1r,4r)-4-(3-chloroanilino)-2′-{2-[(3-fluoropyridin-4-yl)oxy]ethyl}-2′,3′-dihydrospiro[cyclohexane-1,1′-indene]-4-carboxylic acid]
25 | 6.32 | O=C(O)[C@]1(Nc2cccc(Cl)c2)CC[C@@]2(CC1)c1ccccc1CC2CCCOc1ccc(F)cc1 (some centres unmarked) [Example 425, (1r,4r)-4-(3-chloroanilino)-2′-[3-(4-fluorophenoxy)propyl]-2′,3′-dihydrospiro[cyclohexane-1,1′-indene]-4-carboxylic acid]
26 | 6.49 | Cc1cnccc1CCCOC1Cc2ccccc2[C@]12CC[C@@](Nc1cccc(Cl)c1)(C(=O)O)CC2 (some centres unmarked) [Example 401, (1s,4s)-4-(3-chloroanilino)-2′-[3-(3-methylpyridin-4-yl)propoxy]-2′,3′-dihydrospiro[cyclohexane-1,1′-indene]-4-carboxylic acid]
27 | 6.79 | CCOC/C=C/C1=Cc2ccccc2[C@]12CC[C@@](Nc1cccc(Cl)c1)(C(=O)O)CC2 [Example 154, (1r,4r)-4-(3-chloroanilino)-2′-[(1E)-3-ethoxyprop-1-en-1-yl]spiro[cyclohexane-1,1′-indene]-4-carboxylic acid]
28 | 7.32 | C[C@@H](COc1ccnc(C(F)F)c1)C[C@H]1Cc2ccccc2[C@]12CC[C@@](Nc1cccc(Cl)c1)(C(=O)O)CC2 [Example 581, (1r,2′S,4S)-4-(3-chloroanilino)-2′-[(2R)-3-{[2-(difluoromethyl)pyridin-4-yl]oxy}-2-methylpropyl]-2′,3′-dihydrospiro[cyclohexane-1,1′-indene]-4-carboxylic acid]
29 | 6.51 | O=C(O)[C@]1(Nc2cccc(Cl)c2)CC[C@]2(CC1)C(/C=C/c1ccc(-c3ccccc3)cc1)=Cc1ccccc12 [Example 158, (1r,4r)-2′-[(E)-2-([1,1′-biphenyl]-4-yl)ethenyl]-4-(3-chloroanilino)spiro[cyclohexane-1,1′-indene]-4-carboxylic acid]
30 | 6.67 | C[C@@H](COc1ccnc(CO)c1)C[C@H]1Cc2ccccc2[C@]12CC[C@@](Nc1cccc(Cl)c1)(C(=O)O)CC2 [Example 579, (1r,2′S,4S)-4-(3-chloroanilino)-2′-[(2R)-3-{[2-(hydroxymethyl)pyridin-4-yl]oxy}-2-methylpropyl]-2′,3′-dihydrospiro[cyclohexane-1,1′-indene]-4-carboxylic acid]
31 | 6.50 | Cc1n[nH]c2cccc(OCCCC3Cc4ccccc4[C@]34CC[C@@](Nc3cccc(Cl)c3)(C(=O)O)CC4)c12 (mixture of isomers) [Example 453, (1r,4r)-4-(3-chloroanilino)-2′-{3-[(3-methyl-1H-indazol-4-yl)oxy]propyl}-2′,3′-dihydrospiro[cyclohexane-1,1′-indene]-4-carboxylic acid]
32 | 6.73 | CC[C@H](COc1ccncc1)C[C@H]1Cc2ccccc2[C@]12CC[C@@](Nc1cccc(Cl)c1)(C(=O)O)CC2 [Example 542]
